Measurements: patent US20050209157A1, “Short bioactive peptides and methods for their use” (priority 2001, published 2005)
Read-outs that look alike come from different tables or passages of the source. No end group written: not given here.

Legend:
[1] = system: S. epidermidis C621; assay type: cell-based, Staphylococcus epidermidis; details: mean of three; 16 to 20 hours at 35° C.
[2] = system: H1299; assay: Anti-cancer assay, MTT, LD50; assay type: cell-based; details: 24 hours with peptide, lung large cell carcinoma
Excerpt: (§1) Numbers are LD50 values (μg/mL).

[3] = system: BMKC; assay: Anti-cancer assay, MTT, LD50; assay type: cell-based; details: BMKC cloned melanoma line, 24 hours with peptide
Excerpt: as §1

[4] = system: SW480; assay: Anti-cancer assay, MTT, LD50; assay type: cell-based; details: SW480 colon adenocarcinoma line, 24 hours with peptide
Excerpt: as §1

[5] = system: MCF7; assay: Anti-cancer assay, MTT, LD50; assay type: cell-based; details: MCF7 breast adenocarcinoma line, MTT, 24 hours with peptide
Excerpt: as §1

[6] = system: PC3; assay: Anti-cancer assay, MTT, LD50; assay type: cell-based; details: 24 hours with peptide, prostate adenocarcinoma
Excerpt: as §1

[7] = system: HeLaS3; assay: Anti-cancer assay, MTT, LD50; assay type: cell-based; details: 24 hours with peptide, cervical carcinoma
Excerpt: as §1

[8] = system: S. aureus (MRSA); assay type: cell-based, Staphylococcus aureus; details: mean of three; 16 to 20 hours at 35° C.
[9] = system: Staphylococcus aureus ATCC 6538; assay: Antimicrobial assay I, MIC by OD measurement; assay type: cell-based; details: 37° C. for 24 hours, absorbance 620 nm
[10] = system: Pseudomonas aeruginosa ATCC 9027; assay: Antimicrobial assay I, MIC by OD measurement; assay type: cell-based; details: 37° C. for 24 hours, absorbance 620 nm
[11] = system: S. pyogenes ATCC19615; assay: Antimicrobial assays II, NCCLS broth microdilution MIC; assay type: cell-based, Streptococcus pyogenes; details: mean of three, in µg/mL
[12] = in vitro; details: human, WI38 normal lung fibroblast cells, LD50 WI38, WI38 normal lung fibroblast line, MTT, 24 hours with peptide
[13] = system: S. pneumoniae C718; assay: Antimicrobial assays II, NCCLS broth microdilution MIC; assay type: cell-based, Streptococcus pneumoniae; details: mean of three
[14] = in vitro; assay type: cell-based, human; details: human, human red blood cells, pH 7, hemolytic assay, concentration at 50% hemolysis, 1 hour at 37° C.; read-out: LD50
[15] = system: S. pyogenes M76; assay: Antimicrobial assays II, NCCLS broth microdilution MIC; assay type: cell-based, Streptococcus pyogenes; details: mean of three; 16 to 20 hours at 35° C.
[16] = system: yeast (Saccharomyces cerevisiae); assay: Antimicrobial assay I, yeast assay in RPMI 1640; assay type: cell-based; details: RPMI 1640 media
[17] = system: WI38; details: MTT, 24 hours with peptide; normal fibroblast line
[18] = system: P. aeruginosa H774; assay type: cell-based, Pseudomonas aeruginosa; details: P. aeruginosa H744; nalidixic acid + peptide at ¼ MIC; 0.5 or less = synergy
In short: (§2)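 Synergy against efflux-mutant strains: two-fold dilutions of nalidixic acid or chloramphenicol tested with peptide held at ¼ of its MIC.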

[19] = system: P. aeruginosa H374; assay type: cell-based, Pseudomonas aeruginosa; details: for MIC Cm-comb.: MIC of chloramphenicol with peptide at ¼ MIC; for MIC Nal-comb.: MIC of nalidixic acid with peptide at ¼ MIC; for FIC Index: 0.5 or less = synergy
In short: as §2

[20] = system: P. aeruginosa; assay type: cell-based, Pseudomonas aeruginosa; details: P. aeruginosa H744; MIC of nalidixic acid with peptide at ¼ MIC
In short: as §2

[21] = system: S. pneumoniae C719; assay: Antimicrobial assays II, NCCLS broth microdilution MIC; assay type: cell-based, Streptococcus pneumoniae; details: mean of three, in µg/mL
[22] = system: P. acne ATCC 6919; assay: as above; assay type: cell-based, Propionibacterium acnes; details: mean of three, in µg/mL
[23] = chloramphenicol + peptide at ¼ MIC
[24] = nalidixic acid + peptide at ¼ MIC, FIC=0.25+MIC comb/MIC alone

Substance | S. epidermidis C621 MIC [1] [µg/mL] | H1299 LD50 [2] [µg/mL] | LD50 BMKC [3] [µg/mL] | LD50 SW480 [4] [µg/mL] | LD50 MCF7 [5] [µg/mL] | PC3 LD50 [6] [µg/mL] | HeLaS3 LD50 [7] [µg/mL] | S. aureus (MRSA) MIC [8] [µg/mL] | staph6538 (MIC) [9] [µg/mL] | paerug9027 (MIC) [10] [µg/mL] | S. pyogenes MIC [11] | CC50 at 24 h [12] [µg/mL] | S. pneumoniae MIC [13] [µg/mL] | HC50 at 1 h [14] [µg/mL] | S. pyogenes M76 MIC [15] [µg/mL] | yeast (MIC or MFC) [16] | WI38 LD50 [17] [µg/mL] | FIC Index [18] | MIC Cm-comb. [19] [µg/mL] | MIC Nal-comb. [19] [µg/mL] | other results
FALAAKALKKLAKKLKKLAKKAL-NH2 [P23] | 16 | 64 | 27 | 5 | 62 | 41 | 82 | 32 | 5 | 50 | 8 | 34 | 16 | 300 | 16 | 100 µg/mL | 34 | 1.25 | 8 | 2500 | FIC Index [19, 23]: 0.75; FIC Index [19, 24]: 0.75; MIC Nal-comb. [20]: 624 µg/mL; S. pneumoniae MIC [21]: 16; P. acne MIC [22]: 4
KWKLFKKKTKLFKKFAKKLAKKL-NH2 [P73] | 4 | 115 | 360 | 70 | 150 | 97 | 270 | 16 | 50 | 15 | 16 | 160 | > 128 | 90 | 16 | 100 µg/mL | 160 | 1.25 | 8 | 2500 | FIC Index [19, 23]: 0.75; FIC Index [19, 24]: 0.75; MIC Nal-comb. [20]: 624 µg/mL; S. pneumoniae MIC [21]: 64; P. acne MIC [22]: 4
FALAKLAKKAKAKLKKALKAL-NH2 [P26] | 4 | 84 | 94 | 8 | 74 | 125 | 150 | 32 | 10 | 15 | 4 | 96 | > 128 | 90 | 4 | > (> indicates greater than 200 μg/mL) | 96 | 1.25 | 8 | 2500 | FIC Index [19, 23]: 0.75; FIC Index [19, 24]: 0.75; MIC Nal-comb. [20]: 624 µg/mL; S. pneumoniae MIC [21]: 16; P. acne MIC [22]: 4
FAKLLAKLAKKVL-NH2 [P124] | 4 | 30 | 10 | 9 | 18 | 10 | 14 | 8 | 5 | 100 | 16 | 21 | > 128 | 55 | 16 | 100 µg/mL | 21 | 1.25 | 16 | 2500 | FIC Index [19, 23]: 1.25; FIC Index [19, 24]: 0.75; MIC Nal-comb. [20]: 624 µg/mL; S. pneumoniae MIC [21]: 64; P. acne MIC [22]: 8
KYKKALKKLAKLL-NH2 [P146] | 8 | 93 | 185 | 380 | 110 | 440 | 640 | 16 | 10 | 10 | 8 | 270 | > 128 | 180 | 8 | 50 µg/mL | 270 | 1.25 | 4 | 625 | FIC Index [19, 23]: 0.5; FIC Index [19, 24]: 0.375; MIC Nal-comb. [20]: 624 µg/mL; S. pneumoniae MIC [21]: 128; P. acne MIC [22]: 16
FALALKKALKALKKAL-NH2 [P34] | 8 | 24 | 53 | 35 | 21 | 9 | 62 | 16 | 5 | 50 | 4 | 40 | 8 | 200 | 4 | 25 µg/mL | 40 | 1.25 | 16 | 2500 | FIC Index [19, 23]: 1.25; FIC Index [19, 24]: 0.75; MIC Nal-comb. [20]: 624 µg/mL; S. pneumoniae MIC [21]: 8; P. acne MIC [22]: 8
FALALKALKKLAKKLKKLAKKAL-NH2 [P25] | 4 | 37 | 36 | 12 | 10 | 12 | 20 | 16 | 10 | 5 | 8 | 24 | 64 | 16 | 8 | 25 µg/mL | 24 | 0.5 | 4 | 2500 | FIC Index [19, 23]: 0.5; FIC Index [19, 24]: 0.75; MIC Nal-comb. [20]: 156 µg/mL; S. pneumoniae MIC [21]: 8; P. acne MIC [22]: 2
